Measurements: ChEMBL document CHEMBL1153895, “Discovery of 4,6-bis-anilino-1H-pyrrolo[2,3-d]pyrimidines: potent inhibitors of the IGF-1R receptor tyrosine kinase” (Bioorg Med Chem Lett, 2009)

Assays:
[1] = biological target: T1, Insulin-like growth factor 1 receptor (Homo sapiens, UniProt P08069); assay: Inhibition of GST-tagged human IGF1R expressed in Sf9 cells by Wallac Victor fluorometer
[2] = biological target: T1, Insulin-like growth factor 1 receptor; assay: Inhibition of human IGF1R phosphorylation expressed in HEK293 cells by DELFIA; format: cell-based
[3] = Clearance in rat at 4.2 mg/kg, iv; format: ADME, organism-based; set-up: dose 4.2 mg/kg, route intravenous; conditions: in vivo
Rattus norvegicus [4] = assay: Dose normalized AUC in rat at 4.2 mg/kg, iv and 13.6 mg/kg, po; format: ADME, organism-based; conditions: in vivo
Rattus norvegicus [5] = assay: Volume of distribution at steady state in rat at 4.2mg/kg, iv and 13.6 mg/kg, po; format: ADME, organism-based; set-up: dose 13.6 mg/kg, route oral; conditions: in vivo
[6] = Cmax in rat at 4.2mg/kg, iv and 13.6 mg/kg, po; format: ADME, organism-based; set-up: dose 13.6 mg/kg, route oral; conditions: in vivo
[7] = Bioavailability in rat at 4.2 mg/kg, iv and 13.6 mg/kg, po; format: ADME, organism-based; conditions: in vivo
[8] = Clearance in rat at 1.7 mg/kg, iv; format: ADME, organism-based; set-up: dose 1.7 mg/kg, route intravenous; conditions: in vivo
Rattus norvegicus [9] = assay: Dose normalized AUC in rat at 1.7 mg/kg, iv and 10.5 mg/kg, po; format: ADME, organism-based; conditions: in vivo
[10] = Volume of distribution at steady state in rat at 1.7 mg/kg, iv and 10.5 mg/kg, po; format: ADME, organism-based; conditions: in vivo, read-out: Vdss
[11] = Cmax in rat at 1.7 mg/kg, iv and 10.5 mg/kg, po; format: ADME, organism-based; conditions: in vivo
[12] = Bioavailability in rat at 1.7 mg/kg, iv and 10.5 mg/kg, po; format: ADME, organism-based; conditions: in vivo
Rattus norvegicus [13] = assay: Dose normalized AUC in rat at 2.1 mg/kg, iv and 9.2 mg/kg, po; format: ADME, organism-based; conditions: in vivo
[14] = Volume of distribution at steady state in rat at 2.1 mg/kg, iv and 9.2 mg/kg, po; format: ADME, organism-based; conditions: in vivo, read-out: Vdss
[15] = Cmax in rat at 2.1 mg/kg, iv and 9.2 mg/kg, po; format: ADME, organism-based; conditions: in vivo
Aurora kinase B = Aurora kinase B (Homo sapiens, UniProt Q96GD4); assay: Inhibition of Aurora B
[16] = biological target: Mitogen-activated protein kinase 8 (Homo sapiens, UniProt P45983); assay: Inhibition of JNK1
[17] = biological target: ALK tyrosine kinase receptor (Homo sapiens, UniProt Q9UM73); assay: Inhibition of ALK
Insulin receptor = Insulin receptor (Homo sapiens, UniProt P06213); assay: Inhibition of human IR
[18] = Clearance in rat at 2.0 mg/kg, iv; format: ADME, organism-based; set-up: dose 2 mg/kg, route intravenous; conditions: in vivo
Rattus norvegicus [19] = assay: Dose normalized AUC in rat at 2.0 mg/kg, iv and 10.6 mg/kg, po; format: ADME, organism-based; conditions: in vivo
Rattus norvegicus [20] = assay: Volume of distribution at steady state in rat at 2.0mg/kg, iv and 10.6 mg/kg, po; format: ADME, organism-based; set-up: dose 10.6 mg/kg, route oral; conditions: in vivo
[21] = Cmax in rat at 2.0mg/kg, iv and 10.6 mg/kg, po; format: ADME, organism-based; set-up: dose 10.6 mg/kg, route oral; conditions: in vivo
[22] = Bioavailability in rat at 2.0 mg/kg, iv and 10.6 mg/kg, po; format: ADME, organism-based; conditions: in vivo
[23] = Clearance in rat at 2.3 mg/kg, iv; format: ADME, organism-based; set-up: dose 2.3 mg/kg, route intravenous; conditions: in vivo
Rattus norvegicus [24] = assay: Dose normalized AUC in rat at 2.3 mg/kg, iv and 10.7 mg/kg, po; format: ADME, organism-based; conditions: in vivo
Rattus norvegicus [25] = assay: Volume of distribution at steady state in rat at 2.3mg/kg, iv and 10.7 mg/kg, po; format: ADME, organism-based; set-up: dose 10.7 mg/kg, route oral; conditions: in vivo
[26] = Cmax in rat at 2.3mg/kg, iv and 10.7 mg/kg, po; format: ADME, organism-based; set-up: dose 10.7 mg/kg, route oral; conditions: in vivo
[27] = Bioavailability in rat at 2.3 mg/kg, iv and 10.7 mg/kg, po; format: ADME, organism-based; conditions: in vivo

Aurora kinase B, sequence (Q96GD4 whole entry): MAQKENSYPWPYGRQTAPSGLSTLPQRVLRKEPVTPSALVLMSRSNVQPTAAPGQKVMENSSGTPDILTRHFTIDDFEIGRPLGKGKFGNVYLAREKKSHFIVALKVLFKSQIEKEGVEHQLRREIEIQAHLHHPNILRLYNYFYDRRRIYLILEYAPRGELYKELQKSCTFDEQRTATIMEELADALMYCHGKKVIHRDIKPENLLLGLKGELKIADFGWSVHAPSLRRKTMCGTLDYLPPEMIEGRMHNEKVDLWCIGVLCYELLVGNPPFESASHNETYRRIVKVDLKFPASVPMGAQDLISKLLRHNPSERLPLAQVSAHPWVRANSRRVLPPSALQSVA
T1 sequence (P08069 31-736 limits assumed): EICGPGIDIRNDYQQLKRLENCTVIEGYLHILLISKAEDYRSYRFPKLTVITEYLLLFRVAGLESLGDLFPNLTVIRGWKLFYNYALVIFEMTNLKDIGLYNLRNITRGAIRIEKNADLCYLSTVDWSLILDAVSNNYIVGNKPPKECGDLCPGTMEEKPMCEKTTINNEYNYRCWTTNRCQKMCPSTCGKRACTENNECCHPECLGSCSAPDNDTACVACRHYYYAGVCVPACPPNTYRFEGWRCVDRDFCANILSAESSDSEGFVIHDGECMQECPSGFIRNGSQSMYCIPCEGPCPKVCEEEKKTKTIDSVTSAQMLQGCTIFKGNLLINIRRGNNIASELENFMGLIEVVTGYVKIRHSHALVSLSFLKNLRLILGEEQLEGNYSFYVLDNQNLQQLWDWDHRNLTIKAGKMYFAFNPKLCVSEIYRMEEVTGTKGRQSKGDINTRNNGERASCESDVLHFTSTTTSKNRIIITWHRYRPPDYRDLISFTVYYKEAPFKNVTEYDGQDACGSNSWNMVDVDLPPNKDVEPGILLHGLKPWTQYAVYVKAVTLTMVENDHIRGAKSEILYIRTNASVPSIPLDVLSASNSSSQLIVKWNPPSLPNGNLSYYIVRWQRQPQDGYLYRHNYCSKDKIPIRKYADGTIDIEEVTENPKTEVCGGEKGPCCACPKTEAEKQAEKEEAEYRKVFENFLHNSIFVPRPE
T1 sequence (P08069 741-1367 limits assumed): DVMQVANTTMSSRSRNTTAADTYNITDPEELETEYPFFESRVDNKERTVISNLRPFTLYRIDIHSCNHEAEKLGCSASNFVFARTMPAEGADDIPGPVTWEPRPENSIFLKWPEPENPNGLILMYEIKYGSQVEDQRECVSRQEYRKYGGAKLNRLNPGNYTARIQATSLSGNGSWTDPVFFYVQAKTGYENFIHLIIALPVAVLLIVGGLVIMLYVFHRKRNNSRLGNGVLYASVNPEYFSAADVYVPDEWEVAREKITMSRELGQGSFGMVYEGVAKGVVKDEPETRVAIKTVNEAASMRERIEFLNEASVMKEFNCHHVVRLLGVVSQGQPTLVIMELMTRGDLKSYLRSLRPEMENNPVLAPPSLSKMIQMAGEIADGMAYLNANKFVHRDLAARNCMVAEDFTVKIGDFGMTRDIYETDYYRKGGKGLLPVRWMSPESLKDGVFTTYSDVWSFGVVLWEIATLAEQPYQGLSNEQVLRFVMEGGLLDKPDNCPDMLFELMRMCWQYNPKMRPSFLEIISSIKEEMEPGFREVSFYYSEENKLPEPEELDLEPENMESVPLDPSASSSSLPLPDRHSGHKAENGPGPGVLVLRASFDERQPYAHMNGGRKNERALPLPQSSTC
ALK tyrosine kinase receptor, sequence (Q9UM73 whole entry): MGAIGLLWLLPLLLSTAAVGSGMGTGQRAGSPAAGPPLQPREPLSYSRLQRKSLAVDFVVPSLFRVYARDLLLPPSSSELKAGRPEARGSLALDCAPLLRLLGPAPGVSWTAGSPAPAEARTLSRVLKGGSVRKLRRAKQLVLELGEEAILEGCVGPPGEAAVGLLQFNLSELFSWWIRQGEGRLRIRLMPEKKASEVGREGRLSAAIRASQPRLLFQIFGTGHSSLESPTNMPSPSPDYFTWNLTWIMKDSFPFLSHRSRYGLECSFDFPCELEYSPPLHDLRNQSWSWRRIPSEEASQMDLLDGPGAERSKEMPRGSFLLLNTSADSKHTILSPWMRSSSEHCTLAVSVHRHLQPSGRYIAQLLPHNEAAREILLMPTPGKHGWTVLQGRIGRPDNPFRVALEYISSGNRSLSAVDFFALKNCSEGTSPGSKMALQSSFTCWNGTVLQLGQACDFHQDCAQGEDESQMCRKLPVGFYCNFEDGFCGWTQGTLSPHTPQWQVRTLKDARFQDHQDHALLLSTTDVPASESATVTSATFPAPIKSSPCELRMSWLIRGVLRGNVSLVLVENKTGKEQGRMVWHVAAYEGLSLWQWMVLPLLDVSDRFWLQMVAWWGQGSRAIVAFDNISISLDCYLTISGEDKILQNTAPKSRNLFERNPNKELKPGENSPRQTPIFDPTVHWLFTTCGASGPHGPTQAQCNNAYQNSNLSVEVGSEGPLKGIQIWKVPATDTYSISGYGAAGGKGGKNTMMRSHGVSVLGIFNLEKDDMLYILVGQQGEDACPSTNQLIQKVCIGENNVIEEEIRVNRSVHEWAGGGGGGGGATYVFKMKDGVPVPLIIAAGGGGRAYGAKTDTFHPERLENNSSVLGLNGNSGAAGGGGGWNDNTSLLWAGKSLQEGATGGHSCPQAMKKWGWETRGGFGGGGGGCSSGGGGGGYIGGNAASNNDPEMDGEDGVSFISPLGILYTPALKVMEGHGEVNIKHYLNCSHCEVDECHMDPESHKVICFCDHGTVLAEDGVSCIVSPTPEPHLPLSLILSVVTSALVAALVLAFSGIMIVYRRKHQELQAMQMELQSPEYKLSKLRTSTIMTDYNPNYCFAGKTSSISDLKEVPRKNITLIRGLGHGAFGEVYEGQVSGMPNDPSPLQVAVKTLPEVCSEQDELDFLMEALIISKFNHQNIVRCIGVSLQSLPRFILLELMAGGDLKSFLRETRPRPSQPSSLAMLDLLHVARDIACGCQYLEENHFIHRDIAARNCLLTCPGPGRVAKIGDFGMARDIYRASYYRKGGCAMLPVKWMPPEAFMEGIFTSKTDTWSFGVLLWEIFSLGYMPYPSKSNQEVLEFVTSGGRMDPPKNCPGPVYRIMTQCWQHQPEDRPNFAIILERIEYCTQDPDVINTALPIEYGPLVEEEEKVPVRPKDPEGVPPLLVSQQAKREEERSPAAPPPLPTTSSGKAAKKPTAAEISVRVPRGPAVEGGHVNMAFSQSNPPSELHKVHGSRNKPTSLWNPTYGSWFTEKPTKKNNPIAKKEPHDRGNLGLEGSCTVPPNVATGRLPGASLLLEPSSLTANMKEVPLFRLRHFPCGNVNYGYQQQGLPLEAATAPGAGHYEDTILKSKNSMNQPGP
Insulin receptor, sequence (P06213 28-758 limits assumed): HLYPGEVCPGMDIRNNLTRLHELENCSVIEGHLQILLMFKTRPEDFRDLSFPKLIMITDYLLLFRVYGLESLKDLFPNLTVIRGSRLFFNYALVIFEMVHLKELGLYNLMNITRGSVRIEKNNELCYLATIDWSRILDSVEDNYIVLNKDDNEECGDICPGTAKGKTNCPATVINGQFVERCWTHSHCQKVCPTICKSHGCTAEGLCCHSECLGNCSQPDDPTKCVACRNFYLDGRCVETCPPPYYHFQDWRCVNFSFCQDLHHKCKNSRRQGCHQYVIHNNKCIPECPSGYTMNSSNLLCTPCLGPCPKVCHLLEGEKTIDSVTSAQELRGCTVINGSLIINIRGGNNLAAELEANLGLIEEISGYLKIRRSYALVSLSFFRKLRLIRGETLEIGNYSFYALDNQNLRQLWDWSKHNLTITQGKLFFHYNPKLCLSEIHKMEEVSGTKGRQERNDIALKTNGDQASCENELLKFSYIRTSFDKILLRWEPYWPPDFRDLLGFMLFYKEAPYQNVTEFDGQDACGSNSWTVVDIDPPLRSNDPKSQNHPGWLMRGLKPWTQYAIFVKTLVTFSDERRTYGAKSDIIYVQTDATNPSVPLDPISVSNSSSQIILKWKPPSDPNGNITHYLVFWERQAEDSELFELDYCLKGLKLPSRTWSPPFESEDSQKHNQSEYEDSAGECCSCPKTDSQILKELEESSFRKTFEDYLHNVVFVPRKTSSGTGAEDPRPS
Insulin receptor, sequence (P06213 763-1382 limits assumed): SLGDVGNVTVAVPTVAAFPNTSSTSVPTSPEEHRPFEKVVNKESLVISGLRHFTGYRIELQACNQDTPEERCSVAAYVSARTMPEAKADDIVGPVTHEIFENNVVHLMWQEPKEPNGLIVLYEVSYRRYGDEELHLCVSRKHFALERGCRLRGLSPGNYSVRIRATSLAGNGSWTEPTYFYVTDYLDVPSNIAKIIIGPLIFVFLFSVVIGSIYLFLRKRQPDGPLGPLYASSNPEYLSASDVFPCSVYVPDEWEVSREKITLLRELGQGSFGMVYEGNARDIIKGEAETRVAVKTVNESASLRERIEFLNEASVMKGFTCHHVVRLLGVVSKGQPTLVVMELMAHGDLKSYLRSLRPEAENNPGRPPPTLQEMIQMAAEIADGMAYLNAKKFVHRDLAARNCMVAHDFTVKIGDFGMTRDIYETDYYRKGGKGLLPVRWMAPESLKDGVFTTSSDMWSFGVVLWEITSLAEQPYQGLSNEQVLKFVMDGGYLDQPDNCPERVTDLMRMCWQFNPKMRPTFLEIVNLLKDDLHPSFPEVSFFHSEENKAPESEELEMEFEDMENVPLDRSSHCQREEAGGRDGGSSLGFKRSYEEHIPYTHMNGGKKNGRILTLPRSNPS
Mitogen-activated protein kinase 8, sequence (P45983 whole entry): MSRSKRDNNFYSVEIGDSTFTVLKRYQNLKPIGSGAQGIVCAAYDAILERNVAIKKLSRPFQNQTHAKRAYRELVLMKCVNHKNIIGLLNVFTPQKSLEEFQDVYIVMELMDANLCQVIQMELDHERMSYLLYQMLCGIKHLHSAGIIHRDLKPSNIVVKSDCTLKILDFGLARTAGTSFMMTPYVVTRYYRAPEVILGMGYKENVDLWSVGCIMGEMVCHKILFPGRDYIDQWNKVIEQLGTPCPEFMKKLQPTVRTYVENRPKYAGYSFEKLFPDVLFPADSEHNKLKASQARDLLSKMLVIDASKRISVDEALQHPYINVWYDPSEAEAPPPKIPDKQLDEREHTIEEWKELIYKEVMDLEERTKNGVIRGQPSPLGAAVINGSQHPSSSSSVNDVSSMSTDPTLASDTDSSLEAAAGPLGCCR

IC50 [1] [nM]	IC50 [2] [nM]	Compound	also measured
0.5	53	COc1cc(N2CCN(C(C)C)CC2)ccc1Nc1nc(Nc2cc(F)c(F)cc2C(N)=O)c2cc[nH]c2n1	clearance [3]: 64 mL/min/kg; AUC (Rattus norvegicus [4]): 114 ng·h/mL/mg/kg; Vdss (Rattus norvegicus [5]): 17 L/kg; Cmax [6]: 152 ng/mL; bioavailability [7]: 45%
3.2	90	COc1cc(N2CCN(C(C)C)CC2)c(OC)cc1Nc1nc(Nc2cccc(F)c2C(N)=O)c2cc[nH]c2n1	
4	574	COc1c(Nc2nc(Nc3cccc(F)c3C(N)=O)c3cc[nH]c3n2)ccc(N2CCN(C(C)C)CC2)c1F	
1.6	65	COc1cc(N2CCN(C(C)C)CC2)c(Cl)cc1Nc1nc(Nc2cccc(F)c2C(N)=O)c2cc[nH]c2n1	
1	71	COc1cc(N2CCN(C(C)C)CC2)ccc1Nc1nc(Nc2ccccc2C(N)=O)c2cc[nH]c2n1	clearance [8]: 142 mL/min/kg; AUC (Rattus norvegicus [9]): 35 ng·h/mL/mg/kg; Vd [10]: 19.5 L/kg; Cmax [11]: 69 ng/mL; bioavailability [12]: 37%
20	> 10000	CCCN1CCC=C(c2ccc(Nc3nc(Nc4ccccc4C(N)=O)c4cc[nH]c4n3)c(C(F)(F)F)c2)C1	
2	38	COc1cc(N2CCN(C(C)C)CC2)c(C)cc1Nc1nc(Nc2cccc(F)c2C(N)=O)c2cc[nH]c2n1	
25	760	COCCNC(=O)c1cc(F)ccc1Nc1nc(Nc2ccc(N3CCN(C(C)C)CC3)cc2OC)nc2[nH]ccc12	
8	3700	COc1c(Nc2nc(Nc3cccc(F)c3C(N)=O)c3cc[nH]c3n2)ccc(N2CCN(C(C)C)CC2)c1C	
	109	COc1cc(N2CCN(C(C)C)CC2)ccc1Nc1nc(Nc2cccc(F)c2C(N)=O)c2cc[nH]c2n1	AUC (Rattus norvegicus [13]): 156 ng·h/mL/mg/kg; Vd [14]: 18.5 L/kg; Cmax [15]: 184 ng/mL
2	190	COc1cc(N2CCN(C(C)C)CC2)c(F)cc1Nc1nc(Nc2cccc(F)c2C(N)=O)c2cc[nH]c2n1	
	213	COc1cc(N2CCN(C(C)C)CC2)ccc1Nc1nc(Nc2ccc(F)c(F)c2C(N)=O)c2cc[nH]c2n1	
4	160	COc1ccc(N2CCN(C(C)C)CC2)cc1Nc1nc(Nc2cccc(F)c2C(N)=O)c2cc[nH]c2n1	
1.6	68	COc1cc(N2CCOCC2)ccc1Nc1nc(Nc2cc(F)ccc2C(N)=O)c2cc[nH]c2n1	
6.3	613	COc1cc(N2CCN(C(C)C)CC2)ccc1Nc1nc(Nc2ccc(F)cc2C(=O)NO)c2cc[nH]c2n1	
20	270	COc1cc(C)c(N2CCN(C(C)C)CC2)cc1Nc1nc(Nc2cccc(F)c2C(N)=O)c2cc[nH]c2n1	
3.2	2240	CCCN1CCC=C(c2ccc(Nc3nc(Nc4cc(F)ccc4C(N)=O)c4cc[nH]c4n3)c(OC(C)C)c2)C1	

IC50 [1] [nM]	IC50 [2] [nM]	Compound	also measured
50		COc1cc(N2CCN(C(C)C)CC2)ccc1N(C)c1nc(Nc2cccc(F)c2C(N)=O)c2cc[nH]c2n1	
5	650	COc1cc(N2CCN(C(C)C)CC2)ccc1Nc1nc(Nc2ccc(F)cc2C(=O)NCCO)c2cc[nH]c2n1	
1.6		CCCN1CCC=C(c2ccc(Nc3nc(Nc4ccccc4C(N)=O)c4cc[nH]c4n3)cc2)C1	IC50 (Aurora kinase B): 5 nM
1.6	317	CCCN1CCC=C(c2ccc(Nc3nc(Nc4ccccc4C(N)=O)c4cc[nH]c4n3)c(F)c2)C1	IC50 (Aurora kinase B): 1600 nM
1.6	122	CCCN1CCN(c2ccc(Nc3nc(Nc4cc(F)ccc4C(N)=O)c4cc[nH]c4n3)c(OC)c2)CC1	
0.3	47	CCCN1CCC(c2ccc(Nc3nc(Nc4cc(F)ccc4C(N)=O)c4cc[nH]c4n3)c(OC)c2)CC1 [GSK-1326255A]	
0.8	82	CCCN1CCC=C(c2ccc(Nc3nc(Nc4cc(F)ccc4C(N)=O)c4cc[nH]c4n3)c(OC)c2)C1	
3.2	135	CNC(=O)c1cc(F)ccc1Nc1nc(Nc2ccc(N3CCN(C(C)C)CC3)cc2OC)nc2[nH]ccc12	
0.8	130	COc1cc(N2CCN(C(C)C)CC2)ccc1Nc1nc(Nc2cc(F)ccc2C(N)=O)c2cc[nH]c2n1	
0.6	104	CCCN1CCC=C(c2ccc(Nc3nc(Nc4ccccc4C(N)=O)c4cc[nH]c4n3)c(OC)c2)C1	IC50 (Aurora kinase B): > 10000 nM
5		CCCN1CCC=C(c2ccc(Nc3nc(Nc4ccccc4C(N)=O)c4cc[nH]c4n3)c(C)c2)C1 [GSK-994854A]	IC50 [16]: 12 nM; IC50 [17]: 1 nM; IC50 (Insulin receptor): 6.3 nM
0.4	60	CCCN1CCCC(c2ccc(Nc3nc(Nc4cc(F)ccc4C(N)=O)c4cc[nH]c4n3)c(OC)c2)C1 (racemic) [GSK-1173862A]	
5	370	CNC(=O)c1c(F)cccc1Nc1nc(Nc2ccc(N3CCN(C(C)C)CC3)cc2OC)nc2[nH]ccc12	clearance [18]: 32 mL/min/kg; AUC (Rattus norvegicus [19]): 277 ng·h/mL/mg/kg; Vdss (Rattus norvegicus [20]): 22.3 L/kg; Cmax [21]: 418 ng/mL; bioavailability [22]: 83%
	90	COc1cc(N2CCN(C(C)C)CC2)ccc1Nc1nc(Nc2cc(F)cc(F)c2C(N)=O)c2cc[nH]c2n1	clearance [23]: 46 mL/min/kg; AUC (Rattus norvegicus [24]): 117 ng·h/mL/mg/kg; Vdss (Rattus norvegicus [25]): 11 L/kg; Cmax [26]: 200 ng/mL; bioavailability [27]: 37%
10000		COc1cc(N2CCN(C(C)C)CC2)ccc1Nc1nc(Nc2cccc(F)c2C(N)=O)c2ccn(C)c2n1	
0.8	60	COc1cc(N2CCN(C(C)C)CC2)ccc1Nc1nc(Nc2ccc(F)cc2C(N)=O)c2cc[nH]c2n1 [GSK-1220512A]	
16	5600	COc1cc(N2CCN(C(C)C)CC2)ccc1Nc1nc(Nc2ccc(F)cc2C(=O)NC[C@@H](O)CO)c2cc[nH]c2n1 [GSK-1392956A]	
